Test results reported in patent US12570694B2, “Peptides and pharmaceutical, nutraceutical or veterinary compositions for hair loss prevention and/or treatment” (VYTRUS BIOTECH, S.L., priority 2016, dated 2026).
Non-standard residues stand in square brackets, D forms with d. sY = N[C@@H](Cc1ccc(OS(=O)(=O)O)cc1)C(=O)O

How the values were obtained:
Format in all cases: cell-based
[1] = tested on: human dermal fibroblasts (HDF); assay: Wound healing (scratch) assay on human dermal fibroblasts; conditions: FIG. 17; 5 μg/ml and 0.05 μg/ml; 5 days of treatment; triplicate mean; vs 0.1% FBS basal, 10% FBS and TGF-β1 positive controls
Protocol: In order to test the effect of the sulfaction state of the peptides on their activity, it is herewith provided as reference example a wound healing assay conducted onto human dermal fibroblasts (HDF).
Human dermal fibroblasts were seeded in a 24-well plate and were grown to confluence. A 2 mm width scratch was done on the culture monolayer. Then the test products in culture medium were added and the cicatrisation process was followed by means of phase contrast microscopy. With this aim, photographs were taken at initial of the test (T=0 h) before the scratching and after the treatment (at 12 h and at 72 h). Cicatrisation process was evaluated by quantifying wound area reduction at each time.
Data at the end of the test (5 days of treatment) are depicted in FIG. 17, wherein the wound healing potential is depicted as the Healed Area (in μm^2) for assayed peptide.
The results derive from a triplicate test. Values of cicatrised area (or % of cicatrisation) are the mean values.

[2] = tested on: human hair follicle papilla cells (HFDPC); assay: In vitro proliferation of hair follicle dermal papilla cells (BrdU incorporation); conditions: FIGS. 2 and 3; peptides with or without end-terminal modifications at 5.86, 2.93, 1.46 μg/ml; basal control = 100%
Protocol: In order to test the effects of the cell-free supernatants, as well as of the peptides of the invention, a proliferation assay was conducted onto human hair follicle papilla cells (CELL APPLICATIONS, INC; Normal human hair follicles from temporal scalp. Single donor: Ref. 602-05a. Lot. 2092.).
The culture media was a Papilla Cell Basal Medium supplemented with the Growth Supplements kit (Relative composition: Fetal bovine serum, growth factors and antibiotics. Application: 6% v/v).
HFDPC proliferation was assessed determining the proliferation index (%). Cell DNA replication was quantified by means of incorporated bromodeoxiuridine (BrdU) into DNA of treated cells. BrdU assay allows measuring cell proliferation based on cell capability of incorporating BrdU during S-phase of the cell cycle. Cells being divided incorporated BrdU that is further detected by means of antibodies and immunocytochemistry detection.
Cells were seeded at confluence in a 96-well plate. After stabilization and synchronization of cell cultures the tested products were added (at the final concentration indicated in Table 1 of Examples. After that, BrdU was added to cultures and HFDPC were incubated at 37° C. until complete BrdU incorporation. BrdU amounts were proportional to the number of cell divisions and thus to the growth of the treated culture.
Data are depicted in FIG. 1, FIG. 2 and FIG. 3, wherein it is shown the proliferation index (%) of HFDPC, calculated as the percentage of growing in relation to the basal control (non-treated HFDPC) which is accorded a 100% value of proliferation index.

[3] = tested on: human dermal fibroblasts (HDF); assay: In vitro proliferation of human dermal fibroblasts (BrdU incorporation); conditions: FIGS. 6 and 7; 4Aa at 25, 12.5, 1.25 μg/ml, 5Aa at 1.25, 0.63, 0.25 μg/ml; basal control = 100%
Protocol: In order to further test the effects of the peptides of the invention in an additional setting, a proliferation assay was conducted onto human dermal fibroblasts (HDF).
Normal Human Dermal Fibroblasts (HDF) were obtained from foreskin samples, surpluses from surgery of young donors (0-3 years old) and stablished by using the standard method of explants growth and enzymic dissociation of proliferating cells. Cells were propagated and grown in Growth Medium (GM): Dulbecco's 1 g/L glucose medium, supplemented with 10% foetal bovine serum (FBS, PAA); 2 mM L-glutamine (Lonza); and antibiotics (100 μg/ml Penicillin and 100 U/ml of Streptomycin, Lonza). For routine subcultivation and propagation of the primary culture, cells were washed twice with PBS ([…] buffered saline, pH 7.4), harvested with trypsin—EDTA (Gibco) and counted in Neubauer chamber before its seeding in a new cell culture flask (Falcon, 75 cm2).
Test products were prepared at the defined final concentrations by its dilution in Maintenance Medium (Dulbecco's 1 g/L glucose medium, supplemented with 1% foetal bovine serum (FBS, PAA); 2 mM L-glutamine (Lonza); and antibiotics (100 μg/ml Penicillin and 100 U/ml of Streptomycin, Lonza), just before each application.
HFD proliferation was assessed determining the proliferation index (%). Cell DNA replication was quantified by means of incorporated bromodeoxiuridine (BrdU) into DNA of treated cells. […] Cells being divided incorporated BrdU that is further detected by means of antibodies and immunocytochemistry detection. […]
Data are depicted in FIG. 6 and FIG. 7, wherein it is shown the proliferation index (%) of HDF, calculated as the percentage of growing in relation to the basal control (non-treated HDF) which is accorded a 100% value of proliferation index. […]
Data are depicted in FIG. 16, wherein it is shown the proliferation index (%) of HDF, calculated as the percentage of growing in relation to the basal control (non-treated HDF) which is accorded a 100% value of proliferation index.

Substance | wound healing potential, Healed Area [1] | proliferation index of HFDPC [2] | proliferation index of HDF [3]
CH3—C(O)—Xaa1IYT-NH2 (Ac-[sY]IYT-NH2; SMILES CC[C@H](C)[C@H](NC(=O)[C@H](Cc1ccc(OS(=O)(=O)O)cc1)NC(C)=O)C(=O)N[C@@H](Cc1ccc(O)cc1)C(=O)N[C@H](C(N)=O)[C@@H](C)O) [SEQ ID NO: 2, Xaa1 is a tyrosine residue with the side-chain hydroxyl group replaced by a radical —OSO3H] | have the same activity as the 4Aa non-sulfated peptide |  | 
CH3—C(O)—YIXaa2T-NH2 (Ac-YI[sY]T-NH2; SMILES CC[C@H](C)[C@H](NC(=O)[C@H](Cc1ccc(O)cc1)NC(C)=O)C(=O)N[C@@H](Cc1ccc(OS(=O)(=O)O)cc1)C(=O)N[C@H](C(N)=O)[C@@H](C)O) [SEQ ID NO: 3, Xaa2 is a tyrosine residue with the side-chain hydroxyl group replaced by a radical —OSO3H] | have the same activity as the 4Aa non-sulfated peptide |  | 
CH3—C(O)—YIYTQ-NH2 (Ac-YIYTQ-NH2) [SEQ ID NO: 7] |  | can promote cell proliferation | can promote cell proliferation of HDF
